Reference: patent publication US10435396B2, “2-substituted indazoles, methods for producing same, pharmaceutical preparations that contain same, and use of same to produce drugs” (Bayer Pharma Aktiengesellschaft, priority 2016, dated 2019)

Key:
human IRAK4 = human IRAK4 (Homo sapiens (Human), UniProt Q9NWZ3); assay: IRAK4 kinase assay (IRAK4 TR-FRET assay); type: biochemical; conditions: 1 mM ATP
Description: The IRAK4-inhibitory activity of the substances according to the invention was measured in the IRAK4 TR-FRET assay (TR-FRET=Time Resolved Fluorescence Resonance Energy Transfer) described hereinafter.
Recombinant fusion protein from N-terminal GST (glutathione S-transferase) and human IRAK4, expressed in baculovirus-infected insect cells (Hi5, BTI-TN-5B1-4, cell line purchased from Invitrogen, catalogue No. B855-02) and purified via affinity chromatography, was used as enzyme. The substrate used for the kinase reaction was the biotinylated peptide biotin-Ahx-[…] (C-terminus in amide form) which can be purchased, for example, from Biosyntan GmbH (Berlin-Buch).
For the assay, 11 different concentrations in the range from 20 μM to 0.073 nM were prepared from a 2 mM solution of the test substance in DMSO. 50 nl of the respective solution were pipetted into a black low-volume 384-well microtitre plate (Greiner Bio-One, Frickenhausen, Germany), 2 μl of a solution of IRAK4 in assay buffer [50 mM HEPES pH 7.5, 5 mM MgCl2, 1.0 mM dithiothreitol, 30 μM activated sodium orthovanadate, 0.1% (w/v) of bovine gamma-globulin (BGG) 0.04% (v/v) nonidet-P40 (Sigma)] were added and the mixture was incubated for 15 min to allow prebinding of the substances to the enzyme prior to the kinase reaction. The kinase reaction was then started by addition of 3 μl of a solution of adenosine triphosphate (ATP, 1.67 mM=final concentration in 5 μl of assay volume: 1 mM) and peptide substrate (0.83 μM=final concentration in 5 μl assay volume: 0.5 μM) in assay buffer, and the resulting mixture was incubated at 22° C. for the reaction time of 45 min. The concentration of the IRAK4 was adjusted to the respective activity of the enzyme and set such that the assay was carried out in the linear range. Typical concentrations were in the order of about 0.2 nM. The reaction was stopped by addition of 5 μl of a solution of TR-FRET detection reagents [0.1 μM streptavidin-XL665 (Cisbio Bioassays; France, catalogue No. 610SAXLG)] and 1.5 nM anti-phosphoserine antibody [Merck Millipore, “STK Antibody”, catalogue No. 35-002] and 0.6 nM LANCE EU-W1024-labelled anti-mouse-IgG antibody (Perkin-Elmer, product No. AD0077; alternatively, it is possible to use a terbium cryptate-labelled anti-mouse-IgG antibody from Cisbio Bioassays) in aqueous EDTA solution (100 mM EDTA, 0.4% [w/v] bovine serum albumin [BSA] in 25 mM HEPES pH 7.5).
The resulting mixture was incubated at 22° C. for 1 h to allow formation of a complex of the biotinylated phosphorylated substrate and the detection reagents. The amount of the phosphorylated substrate was then evaluated by measuring the resonance energy transfer from europium chelate-labelled anti-mouse-IgG antibody to streptavidin-XL665. To this end, the fluorescence emissions at 620 nm and 665 nm were measured after excitation at 350 nm in a TR-FRET measuring instrument, for example a Rubystar (BMG Labtechnologies, Offenburg, Germany) or a Viewlux (Perkin-Elmer). The ratio of the emissions at 665 nm and 622 nm was taken as a measure of the amount of phosphorylated substrate. The data were normalized (enzyme reaction without test substance=0% inhibition; all other assay components but no enzyme=100% inhibition). Typically, the test substances were tested on the same microtitre plates at 11 different concentrations in the range from 20 μM to 0.073 nM (20 μM, 5.7 μM, 1.6 μM, 0.47 μM, 0.13 μM, 38 nM, 11 nM, 3.1 nM, 0.89 nM, 0.25 nM and 0.073 nM). The dilution series were prepared prior to the assay (2 mM to 7.3 nM in 100% DMSO) by serial dilutions. The IC50 values were calculated using a 4-parameter fit.

[1] = system: secretion of TNF-α in THP-1 cells; assay: TNF-α secretion in THP-1 cells (LPS-triggered); type: cell-based, human; conditions: Homo sapiens, THP-1, 17 h, LPS 0.05 μg/ml, read-out: IC50 with respect to the secretion of TNF-α in THP-1 cells
Description: TNF-α Secretion in THP-1 Cells
With the aid of this test, it is possible to test substances for their ability to inhibit secretion of TNF-α (tumour necrosis factor alpha) in THP-1 cells (human monocytic acute leukaemia cell line). TNF-α is a cytokine involved in inflammatory processes. In this test, TNF-α secretion is triggered by incubation with bacterial lipopolysaccharide (LPS).
THP-1 cells are kept in continuous suspension cell culture [RPMI 1460 medium with L-Glutamax (Gibco, Cat No. 61870-044) supplemented with foetal calf serum (FCS) 10% (Invitrogen, Cat No. 10082-147), 1% penicillin/streptomycin (Gibco BRL, Cat No. 15140-114)] and should not exceed a cell concentration of 1×10^6 cells/ml. The assay is carried out in cell culture medium (RPMI 1460 medium with L-Glutamax supplemented with FCS 10%).
In each case 2-2.5 μl of the cell suspension (corresponds to 4000 cells) per well were dispensed into a 384-well test plate (Greiner, Cat No. 784076), in each of which 40-50 nl substance had been dissolved in 100% DMSO. This was done using […] in the range from 20 μM to 0.073 nM for each substance. The cells were incubated at room temperature for 15 min. 2-2.5 μl of 0.1 μg/ml LPS (Sigma, Escherichia coli 055:B5, Cat. No. L5418) dissolved in cell culture medium (final concentration 0.05 μg/ml) were then dispensed into each well. As neutral control, cells were treated with 0.05 μg/ml LPS and 1% DMSO and, as inhibitor control, with 1% DMSO only.
The plates were centrifuged at 80 g for 30 s and incubated at 37° C., 5% CO2 and 95% atmospheric humidity for 17 h. The amount of TNF-α was determined using the TNF-alpha HTRF Detection Kit (Cisbio, Cat No. 62TNFPEB/C). To this end, 2 μl of the detection solution in each case, consisting of anti-TNF-α-XL665 conjugate and anti-TNF-α-cryptate conjugate dissolved in the reconstitution buffer in accordance with the manufacturer's instructions, were added for the HTRF (Homogeneous Time-Resolved Fluorescence) test. After the addition, the mixture was incubated either at room temperature for 3 h or at 4° C. overnight. The signals were then read at 620/665 nm using an HTRF-enabled measuring instrument such as the BMG PheraStar.
The activity of the substances is expressed as the ratio between neutral and inhibitor control in percent. The IC50 values were calculated using a 4-parameter fit.

human IRAK4, sequence (Q9NWZ3 whole entry): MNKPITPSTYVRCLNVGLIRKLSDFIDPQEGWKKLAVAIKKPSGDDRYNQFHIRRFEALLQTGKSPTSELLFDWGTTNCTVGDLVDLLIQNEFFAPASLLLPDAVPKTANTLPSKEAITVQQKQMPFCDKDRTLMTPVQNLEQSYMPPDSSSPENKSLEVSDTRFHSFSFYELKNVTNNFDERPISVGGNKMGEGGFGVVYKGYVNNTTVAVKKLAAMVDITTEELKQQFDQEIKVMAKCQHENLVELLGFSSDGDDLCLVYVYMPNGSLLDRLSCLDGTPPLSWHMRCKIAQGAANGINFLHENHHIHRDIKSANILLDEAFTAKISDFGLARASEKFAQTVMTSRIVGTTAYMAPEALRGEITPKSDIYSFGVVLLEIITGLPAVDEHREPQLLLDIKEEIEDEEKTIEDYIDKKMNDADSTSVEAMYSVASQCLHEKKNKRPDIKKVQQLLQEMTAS

Structure (SMILES)	IC50 (human IRAK4) [nM]	IC50 [1] [nM]
COc1cc2nn(C3CCOC3)cc2cc1NC(=O)c1cccc(C(F)(F)F)n1 (stereo not drawn) [Example 29, N-[6-Methoxy-2-(tetrahydrofuran-3-yl)-2H-indazol-5-yl]-6-(trifluoromethyl)pyridine-2-carboxamide]	10	630
COc1cc2nn([C@H]3C[C@@H]4C[C@H]3CN4C)cc2cc1NC(=O)c1cccc(C(F)(F)F)n1 (relative stereo) [Example 19, rel-N-{6-Methoxy-2-[(1S,4S,5S)-2-methyl-2-azabicyclo[2.2.1]hept-5-yl]-2H-indazol-5-yl}-6-(trifluoromethyl)pyridine-2-carboxamide]	9	190
CC(C)(O)c1cc2nn([C@@H]3CCOC3)cc2cc1NC(=O)c1cccc(C(F)(F)F)n1 [Example 38, N-{6-(2-Hydroxypropan-2-yl)-2-[(3R)-tetrahydrofuran-3-yl]-2H-indazol-5-yl}-6-(trifluoromethyl)pyridine-2-carboxamide]	31	630
CC(C)(O)c1cc2nn([C@H]3CCOC3)cc2cc1NC(=O)c1cccc(C(F)(F)F)n1 [Example 36, N-{6-(2-Hydroxypropan-2-yl)-2-[(3S)-tetrahydrofuran-3-yl]-2H-indazol-5-yl}-6-(trifluoromethyl)pyridine-2-carboxamide]	28	540
CC(C)(O)c1cc2nn(C3CCOCC3)cc2cc1NC(=O)c1cccc(C(F)(F)F)n1 [Example 34, N-[6-(2-Hydroxypropan-2-yl)-2-(tetrahydro-2H-pyran-4-yl)-2H-indazol-5-yl]-6-(trifluoromethyl)pyridine-2-carboxamide]	6	230
O=C(Nc1cc2cn(C3CCOCC3)nc2cc1Cl)c1cccc(C(F)(F)F)n1 [Example 30, N-[6-Chloro-2-(tetrahydro-2H-pyran-4-yl)-2H-indazol-5-yl]-6-(trifluoromethyl)pyridine-2-carboxamide]	47	280
O=C(Nc1cc2cn(C3CCS(=O)(=O)CC3)nc2cc1OCC1CC1)c1cccc(C(F)(F)F)n1 [Example 17, N-[6-(Cyclopropylmethoxy)-2-(1,1-dioxidotetrahydro-2H-thiopyran-4-yl)-2H-indazol-5-yl]-6-(trifluoromethyl)pyridine-2-carboxamide]	20	110
COc1cc2nn(C3CNC(=O)C3)cc2cc1NC(=O)c1cccc(C(F)(F)F)n1 (stereo not drawn) [Example 22, N-[6-Methoxy-2-(5-oxopyrrolidin-3-yl)-2H-indazol-5-yl]-6-(trifluoromethyl)pyridine-2-carboxamide]	13	150
COc1cc2nn(C3CCOCC3)cc2cc1NC(=O)c1ccnc(C(C)C)n1 [Example 27, 2-Isopropyl-N-[6-methoxy-2-(tetrahydro-2H-pyran-4-yl)-2H-indazol-5-yl]pyrimidine-4-carboxamide]	111	1790
COC(=O)c1cc2nn(C3CCOCC3)cc2cc1NC(=O)c1cccc(C(F)(F)F)n1 [Example 33, Methyl 2-(tetrahydro-2H-pyran-4-yl)-5-({[6-(trifluoromethyl)pyridin-2-yl]carbonyl}amino)-2H-indazole-6-carboxylate]	11	1800
COc1cc2nn(C3CCOCC3)cc2cc1NC(=O)c1csc(C)n1 [Example 25, N-[6-Methoxy-2-(tetrahydro-2H-pyran-4-yl)-2H-indazol-5-yl]-2-methyl-1,3-thiazole-4-carboxamide]	10	840
COc1cc2nn(C3CCOCC3)cc2cc1NC(=O)c1cccc(N)n1 [Example 26, 6-Amino-N-[6-methoxy-2-(tetrahydro-2H-pyran-4-yl)-2H-indazol-5-yl]pyridine-2-carboxamide]	6	220
